Data published in patent US20220111034A1, “VIRUS COMPOSITIONS” (priority 2019, published 2022).

Key:
[1] = system: cocultured CHO-JAM-A and Lec2-JAM-A cells; test: Single particle tracking by dynamic confocal microscopy; type: cell-based
Method: A coculture of Lec2-JAM-A mCherry and CHO-JAM-A cells was seeded onto a 47-mm glass-bottomed petri dish (WillCo Wells) 1 or 2 d before the experiment to ensure formation of a confluent monolayer on the day of the experiment. Cells were imaged by laser scanning confocal microscopy using a Zeiss LSM 880 microscope with a 561 nm laser for mCherry and a 488 nm laser for Alexa488 and a 40× oil objective (NA=0.95). All experiments were conducted at room temperature with cells maintained in Ham's F12 culture medium and a gas mixture of synthetic air with 5% CO2 at 95% relative humidity that was infused at 0.1 L min^−1 into the microscopy chamber using a gas humidifier membrane (PermSelect silicone). The humidity was controlled using a humidity sensor (Sensirion). To ensure virus binding (and not internalization), the cells were placed on ice for 30 min before starting the experiment. After finding an area in which both cell types were adjacent (guided by fluorescence), Alexa488-labelled T3SA+ or T3SA− viruses (10^12 particles/mL) diluted in either F12 Ham's culture medium or 1 mM Neu5Ac solution (on ice) were added to the living cells. The fluorescent signal from both dyes (mCherry and Alexa488) as well as the signal from the PMT channel was recorded for a ˜30 min interval immediately after virus injection at a frame-rate of one image every 13.32 seconds. During recording, the focus was kept constant on the upper surface of cells. Fluorescence images were exported as 12-bit TIFF files, merged into a movie, and further processed using ImageJ (National Institutes of Health, Bethesda). Trajectories were harvested and analyzed using MTrackJ, an ImageJ plugin to track moving viral particles in the movie and obtain track statistics. The latter were further processed using Origin.

JAM-A = test: Biolayer interferometry (BLI) of JAM-A-reovirus interactions; type: binding; settings: 1 mM free glycan
Method: Virus binding to JAM-A was measured on a BLItz® (Pall ForteBio) biolayer interferometer equipped with a Ni2+-NTA biosensor (Pall ForteBio). After loading the chip in a 10 mM NiCl2 solution for 2 min and running an initial baseline step in milliQ water (1 min), JAM-A (0.2 mg mL^−1) was immobilized on the exposed Ni^2+ ions via its C-terminal His6 tag for 5 min until the binding signal reached a plateau (complete saturation of the biosensor). Binding of viral particles (T3SA+, T3SA− or ISVP; at 16 nM) in the absence or presence of 1 mM Neu5Ac was measured during a 10 min association step after another baseline step (virus buffer for 1 min). Dissociation was monitored directly after the association step for 10 min during which the virus solution was exchanged with virus buffer. Chip can be regenerated several times by exposing the biosensor to 10 mM Glycine pH 1.7 followed by a neutralization buffer (Kinetics Buffer). The resulting sensorgram (binding over time) was processed and fitted with a nonlinear regression approach using an association and then dissociation fit provided by GraphPad Prism. Virus concentration and time at which dissociation was initiated were constrained to constant values of 16 nM and 17 min, respectively. From that fit, koff and kon were extracted and KD was calculated.

CHO cells = test: FD-based AFM with virus-functionalized tip on living CHO cells (cocultured with Lec2); type: cell-based; settings: 1 mM, same area rescanned, FIG. 14i-l
Method: NHS-PEG27-acetal linkers were used to functionalize AFM tips as described (Gruber. Crosslinkers and Protocols for AFM Tip Functionalization. https://wwwjku.at/institut-fuer-biophysik/forschung/linked, 2018; Wildling et al. Linking of sensor molecules with amino groups to aminofunctionalized AFM tips. Bioconjug. Chem. 2011, vol. 22, 1239-1248). AFM tips (PFQNM-LC and MSCT probes, Bruker) were immersed in chloroform for 10 min, rinsed with ethanol, dried with a stream of filtered nitrogen, cleaned for 10 min using an ultraviolet radiation and ozone (UV-0) cleaner (Jetlight), and immersed overnight in an ethanolamine solution (3.3 g of ethanolamine hydrochloride in 6.6 mL of DMSO). […]
Correlative images were acquired on an AFM (Bioscope Catalyst and Bioscope Resolve, Bruker) operated in the PeakForce QNM mode (Nanoscope software v9.2) to conduct FD-based AFM and coupled to an inverted epifluorescence microscope (Zeiss Observer Z.1) as described (Newton et al. 2017, supra; Knoops et al. Specific Interactions Measured by AFM on Living Cells between Peroxiredoxin-5 and TLR4: Relevance for Mechanisms of Innate Immunity. Cell chemical biology 2018, vol. 25, 550-559, e553). […] Overview images of cell surfaces (20-30 μm^2) were recorded at imaging forces of ˜500 pN using PFQNM-LC probes (Bruker) having tip lengths of 17 μm, tip radii of 65 nm, and opening angles of 15°. […]

CC(=O)N[C@H]1[C@H]([C@H](O)[C@H](O)CO)OC(O)(C(=O)O)C[C@@H]1O (some centres unmarked) [Neu5Ac, N-acetylneuraminic acid]
number of T3SA+ particles bound to CHO-JAM-A cells ([1]; 1 mM free SA, FIG. 10g): significantly increased | diffusion potential of T3SA+ particles on the cell surface ([1]; 1 mM glycan injected with viral particles, FIG. 10f): significant decrease of their diffusion potential | effect of free SA on diffusion and bound particles of T3SA− ([1]; 1 mM, FIG. 10g): this effect was not observed | influence on T3SA− binding to JAM-A (JAM-A): had no influence | adhesion events of T3SA+ after injection of blocking glycan (CHO cells): significant reduction of adhesion events
